Measurements: patent publication US10450281B1, “Compounds and methods for treating cancer” (Dana-Farber Cancer Institute, Inc., priority 2014, dated 2019)

Assays:
[1] = system: EGFR; assay: EGFR degradation immunoblot in NSCLC line H1650 (FIG. 3); type: cell-based, human; details: H1650 cells, 24 h
Method: Specifically, the NSCLC line H1650, which is driven by a constitutively-activated EGFR, was treated with the indicated concentrations of the PAN-DUB inhibitor SJB-019A and/or the kinase inhibitor Gefitinib. After 24 hours, cells were lysed and the total cellular proteins were electrophoresed by standard PAGE methods. Proteins were immunoblotted and probed with commercially available polyclonal antisera to EGFR or Tubulin. […] Specifically, the NSCLC line H1650, which is driven by a constitutively-activated EGFR, was treated with the indicated concentrations of the PAN-DUB inhibitor SJB-019A and/or the kinase inhibitor Gefitinib. After 24 hours, cells were lysed and the total cellular proteins were electrophoresed by standard PAGE methods. Proteins were immunoblotted and probed with commercially available polyclonal antisera to EGFR or Tubulin. Conclusion: the PAN-DUB inhibitor promotes the degradation of the EGFR, at least in part, by inhibition of USP8 which is expressed in these cells. The dose of the inhibitor that reduce the viability of the NSCLC (less than 0.5 μm, see FIG. 2) correlates with the amount of drug required to degrade EGFR (between 0.2-0.5 μm).

[2] = system: human non-small cell lung cancer (NSCLC) lines; assay: NSCLC cell line viability after 24 h incubation (FIG. 2); type: cell-based
Method: The indicated human non-small cell lung cancer (NSCLC) lines were incubated with the indicated concentrations of the DUB inhibitor (019A) for twenty-four hours, and cell viability was measured. […] The indicated human non-small cell lung cancer (NSCLC) lines were incubated with the indicated concentrations of the DUB inhibitor (019A) for twenty-four hours, and cell viability was measured. […] Specifically, the NSCLC line H1650, which is driven by a constitutively-activated EGFR, was treated with the indicated concentrations of the PAN-DUB inhibitor SJB-019A and/or the kinase inhibitor Gefitinib. After 24 hours, cells were lysed and the total cellular proteins were electrophoresed by standard PAGE methods. Proteins were immunoblotted and probed with commercially available polyclonal antisera to EGFR or Tubulin. Conclusion: the PAN-DUB inhibitor promotes the degradation of the EGFR, at least in part, by inhibition of USP8 which is expressed in these cells. The dose of the inhibitor that reduce the viability of the NSCLC (less than 0.5 μm, see FIG. 2) correlates with the amount of drug required to degrade EGFR (between 0.2-0.5 μm).

[3] = system: Cyclin D1; assay: Cyclin D1 degradation immunoblot in prostate cancer cell line (FIG. 6, FIG. 8); type: cell-based, human; details: 24 h
Method: (§1) Specifically, a human prostate cancer cell line was exposed to the indicated concentrations of PAN-DUB inhibitor, 019A, for 24 hours. Thereafter, cells were lysed, and total cellular proteins were electrophoresed and immunoblotted. Proteins were probed with anti-USP2, anti-Cyclin D1, and anti-vinculin. […] Specifically, a human prostate cancer cell line was exposed to the indicated concentrations of PAN-DUB inhibitor, 019A, for 24 hours. Thereafter, cells were lysed, and total cellular proteins were electrophoresed and immunoblotted. Proteins were probed with anti-USP2, anti-Cyclin D1, and anti-tubulin. […] Specifically, a human prostate cancer cell line was exposed to the indicated concentrations of PAN-DUB inhibitor, 019A, for 24 hours. Thereafter, cells were lysed, and total cellular proteins were electrophoresed and immunoblotted. Proteins were probed with anti-USP2, anti-Cyclin D1, and anti-Tubulin antibodies or anti-vinculin antibodies. Conclusion: the PAN-DUB inhibitor promotes the dose-dependent degradation of Cyclin D1, consistent with the dose-dependent killing of the cells by the drug. The dose of the inhibitor that reduce the viability of the prostate cancer cells (about 0.5 to 0.8 μm, see FIG. 5 and FIG. 7) correlates with the amount of drug required to degrade cyclin D1 (about 0.5 to 0.8 μm).

[4] = Pharmacokinetics of 019A in mice (FIG. 1); type: in vivo; details: IV, IP, or oral (PO) administration
[5] = molecular target: T1, USP2a (Homo sapiens, UniProt O75604); assay: USP2a expression immunoblot in prostate cancer cell line (FIG. 6, FIG. 8); type: cell-based; details: 24 h
T1 construct: endogenous in cells
T1 sequence (O75604 1-605): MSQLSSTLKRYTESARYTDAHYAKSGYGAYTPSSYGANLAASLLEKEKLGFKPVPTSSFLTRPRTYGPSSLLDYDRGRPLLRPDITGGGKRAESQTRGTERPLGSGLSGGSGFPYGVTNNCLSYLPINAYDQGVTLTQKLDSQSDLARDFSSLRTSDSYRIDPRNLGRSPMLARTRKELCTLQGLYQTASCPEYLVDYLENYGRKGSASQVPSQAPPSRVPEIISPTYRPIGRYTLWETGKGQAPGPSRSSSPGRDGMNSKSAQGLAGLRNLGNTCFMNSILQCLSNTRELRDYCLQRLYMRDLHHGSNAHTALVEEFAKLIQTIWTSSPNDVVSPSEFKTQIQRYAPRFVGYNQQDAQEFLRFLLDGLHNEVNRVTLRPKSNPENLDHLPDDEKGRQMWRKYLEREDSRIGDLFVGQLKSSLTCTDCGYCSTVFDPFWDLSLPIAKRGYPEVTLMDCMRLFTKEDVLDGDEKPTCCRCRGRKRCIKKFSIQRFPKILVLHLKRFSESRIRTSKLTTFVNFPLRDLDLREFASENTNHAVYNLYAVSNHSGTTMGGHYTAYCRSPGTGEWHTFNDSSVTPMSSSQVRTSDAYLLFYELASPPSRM
Method: as §1

[6] = system: human prostate cancer cell line; assay: Prostate cancer cell viability after 24 h incubation (FIG. 5, FIG. 7); type: cell-based
Method: A human prostate cancer cell line was incubated with the indicated concentration of DUB inhibitor for 24 hours, and viability was then measured. […] A human prostate cancer cell line was incubated with the indicated concentration of DUB inhibitor for 24 hours, and viability was then measured. […] A human prostate cancer cell line was incubated with the indicated concentration of DUB inhibitor for 24 hours, and viability was then measured.

[7] = system: AR; assay: AR degradation immunoblot in prostate cancer cell line (FIG. 9); type: cell-based, human; details: 24 h
Method: (§2) Specifically, a human prostate cancer cell line was exposed to the indicated concentrations of PAN-DUB inhibitor, 019A, for 24 hours. Thereafter, cells were lysed, and total cellular proteins were electrophoresed and immunoblotted. Proteins were probed with anti-USP12, anti-AR, and anti-Tubulin antibodies. […] Specifically, a human prostate cancer cell line was exposed to the indicated concentrations of PAN-DUB inhibitor, 019A, for 24 hours. Thereafter, cells were lysed, and total cellular proteins were electrophoresed and immunoblotted. Proteins were probed with anti-USP12, anti-AR, and anti-Tubulin antibodies. Conclusion: the PAN-DUB inhibitor promotes the dose-dependent degradation of AR, consistent with the dose-dependent killing of the cells by the drug. The dose of the inhibitor that reduce the viability of the prostate cancer cells (about 0.5 to 0.8 μm, see FIG. 5 and FIG. 7) correlates with the amount of drug required to degrade AR (about 0.6 to 0.8 μm).

[8] = molecular target: T2, USP12 (Homo sapiens, UniProt O75317); assay: USP12 protein immunoblot in prostate cancer cell line (FIG. 9); type: cell-based; details: 24 h
T2 construct: cells were lysed, and total cellular proteins were electrophoresed and immunoblotted; endogenous in cells
Method: as §2

[9] = molecular target: T3, USP8 (Homo sapiens, UniProt P40818); assay: Ub-VS labelling gel shift in K562 cell lysate, anti-USP8 western blot (FIG. 4); type: biochemical; details: dose dependent
T3 construct: endogenous in cells; host or cells: K562 human leukemia cells (lysate)
T3 sequence (P40818 1-1118): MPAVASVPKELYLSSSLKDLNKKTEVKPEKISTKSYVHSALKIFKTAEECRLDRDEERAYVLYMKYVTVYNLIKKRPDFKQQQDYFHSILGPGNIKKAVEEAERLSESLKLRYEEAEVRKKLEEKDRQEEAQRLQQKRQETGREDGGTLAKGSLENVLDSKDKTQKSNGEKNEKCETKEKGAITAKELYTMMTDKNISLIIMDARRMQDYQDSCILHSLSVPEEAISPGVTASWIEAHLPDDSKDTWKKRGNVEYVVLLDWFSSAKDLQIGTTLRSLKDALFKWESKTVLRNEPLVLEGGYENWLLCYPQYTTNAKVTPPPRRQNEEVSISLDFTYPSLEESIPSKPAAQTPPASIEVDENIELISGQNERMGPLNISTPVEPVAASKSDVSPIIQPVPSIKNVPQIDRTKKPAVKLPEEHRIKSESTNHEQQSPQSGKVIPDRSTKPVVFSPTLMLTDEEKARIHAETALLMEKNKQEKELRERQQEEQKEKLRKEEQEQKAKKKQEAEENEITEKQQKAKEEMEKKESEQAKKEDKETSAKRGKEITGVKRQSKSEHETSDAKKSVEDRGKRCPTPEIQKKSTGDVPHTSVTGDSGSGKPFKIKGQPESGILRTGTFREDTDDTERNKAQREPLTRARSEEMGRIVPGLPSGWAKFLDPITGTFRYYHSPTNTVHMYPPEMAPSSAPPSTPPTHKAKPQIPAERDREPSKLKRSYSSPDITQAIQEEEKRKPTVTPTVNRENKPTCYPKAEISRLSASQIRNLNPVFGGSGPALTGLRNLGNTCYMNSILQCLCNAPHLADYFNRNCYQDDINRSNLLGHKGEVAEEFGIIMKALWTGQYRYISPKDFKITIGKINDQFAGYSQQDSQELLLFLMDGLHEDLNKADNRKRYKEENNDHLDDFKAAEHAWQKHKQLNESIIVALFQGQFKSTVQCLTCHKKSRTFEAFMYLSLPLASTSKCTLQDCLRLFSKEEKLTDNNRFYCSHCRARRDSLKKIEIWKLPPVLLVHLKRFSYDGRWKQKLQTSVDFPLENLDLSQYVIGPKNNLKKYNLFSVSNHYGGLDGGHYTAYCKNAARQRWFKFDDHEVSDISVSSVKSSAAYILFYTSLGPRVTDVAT
Method: (§3) Human leukemia cells (K652 cell line) express USP8, USP1, and other DUBs. In this experiment, K562 cells were lysed, and total cellular proteins were incubated with the affinity reagent, Ub-VS (vinyl sulfone) which covalently binds to active USPs. As indicated, the addition of Ub-VS causes an upward gel shift of active USP8 and active USP1 (lane 2). […] A western blot is shown, immunoblotted with either anti-USP8, anti-USP1, or anti-HA.
as §3, with “anti-HA antibodies.” for “anti-HA.”

[10] = molecular target: T4, USP1 (Homo sapiens, UniProt O94782); assay: Ub-VS labelling gel shift in K562 cell lysate, anti-USP1 western blot (FIG. 4); type: biochemical; details: dose dependent
T4 construct: endogenous in cells; host or cells: K562 human leukemia cells (lysate)
Method: as §3
as §3, with “anti-HA antibodies.” for “anti-HA.”

T4 sequence (O94782 whole entry): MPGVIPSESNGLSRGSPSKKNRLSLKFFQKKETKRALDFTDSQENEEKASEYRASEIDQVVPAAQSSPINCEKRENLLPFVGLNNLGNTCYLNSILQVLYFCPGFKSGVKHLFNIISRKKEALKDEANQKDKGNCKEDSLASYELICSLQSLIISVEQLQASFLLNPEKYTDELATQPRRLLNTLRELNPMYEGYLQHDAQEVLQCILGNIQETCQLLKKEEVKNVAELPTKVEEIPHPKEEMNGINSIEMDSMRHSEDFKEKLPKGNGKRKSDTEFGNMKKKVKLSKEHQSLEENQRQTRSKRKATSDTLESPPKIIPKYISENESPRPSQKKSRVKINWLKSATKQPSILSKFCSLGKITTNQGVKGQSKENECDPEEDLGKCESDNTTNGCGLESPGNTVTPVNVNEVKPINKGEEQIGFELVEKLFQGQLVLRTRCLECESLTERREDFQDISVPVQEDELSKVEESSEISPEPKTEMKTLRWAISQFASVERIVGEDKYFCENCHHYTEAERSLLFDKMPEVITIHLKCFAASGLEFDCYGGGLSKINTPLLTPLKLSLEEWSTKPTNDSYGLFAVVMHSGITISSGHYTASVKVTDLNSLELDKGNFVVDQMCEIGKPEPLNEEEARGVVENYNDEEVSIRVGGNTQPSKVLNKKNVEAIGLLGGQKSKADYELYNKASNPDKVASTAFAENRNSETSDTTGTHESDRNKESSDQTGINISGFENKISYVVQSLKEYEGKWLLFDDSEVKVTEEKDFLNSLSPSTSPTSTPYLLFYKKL
T4 sequence (Q8TAF3 whole entry partner): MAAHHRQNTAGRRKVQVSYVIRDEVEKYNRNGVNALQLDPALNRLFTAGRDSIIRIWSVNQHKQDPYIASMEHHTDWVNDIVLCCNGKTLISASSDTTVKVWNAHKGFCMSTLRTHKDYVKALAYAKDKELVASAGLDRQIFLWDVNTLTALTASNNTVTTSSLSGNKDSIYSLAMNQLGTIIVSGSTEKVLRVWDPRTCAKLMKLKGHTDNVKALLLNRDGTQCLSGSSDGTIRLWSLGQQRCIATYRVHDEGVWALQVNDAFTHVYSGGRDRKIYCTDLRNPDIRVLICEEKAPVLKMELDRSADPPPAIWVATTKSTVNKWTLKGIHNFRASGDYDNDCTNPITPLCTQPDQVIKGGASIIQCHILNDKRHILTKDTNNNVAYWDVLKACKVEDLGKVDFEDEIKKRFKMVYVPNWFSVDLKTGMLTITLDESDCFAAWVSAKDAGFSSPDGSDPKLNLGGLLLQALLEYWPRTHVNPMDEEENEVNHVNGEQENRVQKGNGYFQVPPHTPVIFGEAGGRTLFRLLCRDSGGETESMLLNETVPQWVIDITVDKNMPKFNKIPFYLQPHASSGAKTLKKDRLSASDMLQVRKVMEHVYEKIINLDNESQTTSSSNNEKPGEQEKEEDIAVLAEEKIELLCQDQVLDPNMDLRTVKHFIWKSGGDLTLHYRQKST
T2 sequence (O75317 whole entry): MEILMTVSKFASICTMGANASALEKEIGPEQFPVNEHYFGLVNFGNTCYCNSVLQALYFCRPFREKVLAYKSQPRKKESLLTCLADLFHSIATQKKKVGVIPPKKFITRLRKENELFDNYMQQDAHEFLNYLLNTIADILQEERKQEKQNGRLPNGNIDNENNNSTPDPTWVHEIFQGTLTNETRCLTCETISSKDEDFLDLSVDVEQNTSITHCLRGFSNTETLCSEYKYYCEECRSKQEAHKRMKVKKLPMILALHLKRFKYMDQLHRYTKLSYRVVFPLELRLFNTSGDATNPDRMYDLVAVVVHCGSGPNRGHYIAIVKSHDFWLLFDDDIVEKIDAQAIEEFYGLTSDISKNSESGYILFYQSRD
T2 sequence (Q8TAF3 whole entry partner): as the sequence (Q8TAF3 whole entry partner) above
T2 sequence (Q8TBZ3 whole entry partner): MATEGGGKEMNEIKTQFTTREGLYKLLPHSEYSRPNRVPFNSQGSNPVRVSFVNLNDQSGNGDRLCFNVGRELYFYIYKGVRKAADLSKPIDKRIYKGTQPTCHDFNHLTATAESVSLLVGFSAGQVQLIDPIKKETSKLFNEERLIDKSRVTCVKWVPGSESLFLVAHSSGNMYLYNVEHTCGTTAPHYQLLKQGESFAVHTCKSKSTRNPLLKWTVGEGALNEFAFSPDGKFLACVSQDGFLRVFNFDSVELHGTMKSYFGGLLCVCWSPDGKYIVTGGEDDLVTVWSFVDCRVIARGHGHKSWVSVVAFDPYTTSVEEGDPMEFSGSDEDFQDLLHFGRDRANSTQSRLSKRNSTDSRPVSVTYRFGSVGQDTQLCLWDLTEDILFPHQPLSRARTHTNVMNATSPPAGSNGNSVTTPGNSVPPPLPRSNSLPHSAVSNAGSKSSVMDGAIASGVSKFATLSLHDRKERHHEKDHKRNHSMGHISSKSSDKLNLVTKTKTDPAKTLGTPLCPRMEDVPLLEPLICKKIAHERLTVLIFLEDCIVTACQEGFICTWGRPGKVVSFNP

effect on USP2a expression [5] | effect on USP12 protein [8] | inhibition of Ub-VS binding to active USP8 [9] | inhibition of Ub-VS binding to active USP1 [10] | Compound | amount of drug required to degrade EGFR [1] | dose of the inhibitor that reduces the viability of the NSCLC ([2]; 24 h incubation) | selective killing (cytotoxicity) of lung cancer cell lines ([2]; cell lines which express activated EGF-receptor, 24 h) | amount of drug required to degrade cyclin D1 [3] [μm] | serum concentrations after administration [4] | dose of the inhibitor that reduces the viability of the prostate cancer cells [6] [μm] | drug concentration range for killing of prostate cancer cells [6] | amount of drug required to degrade AR [7] [μm]
does not affect USP2a expression | degrades USP12 protein |  |  | O=C1c2ccccc2C(=O)c2oc(-c3cccnc3)nc21 [019A] | 0.2-0.5 μm | less than 0.5 μm | selective killing (cytotoxicity) for lung cancer cell lines which express activated EGF-receptor | 0.5 to 0.8 | inhibitory serum concentrations of 019A can be achieved | 0.5 to 0.8 | submicromolar range | 0.6 to 0.8
 |  | blocks the upward shift | blocks the upward shift | Ub-aldehyde |  |  |  |  |  |  |  | 
